Test results reported in publication PMC8379256, “A xanthene derivative, DS20060511, attenuates glucose intolerance by inducing skeletal muscle-specific GLUT4 translocation in mice” (Communications Biology, 2021).
Values joined by “and” are separate entries in the source; they are usually repeats but may differ in a detail not shown here. Equal entries are not always repeated.

Key:
STZ-treated C57BL/6 mice = assay: Insulin tolerance test (ITT) in STZ-treated C57BL/6 mice; type: in vivo, mouse; details: for Blood glucose: ITT
Procedure: Arrowheads indicate the characteristic ruffled structure of the polymerized actin and actin-associated surface GLUT4. d GLUT4 translocation activity of 30 μM DS20060511 or 100 nM insulin in the presence of the actin polymerization inhibitor, Latrunculin B, at the indicated concentrations. Values shown are means ± SEM, n = 3. **P < 0.01 vs. 0 nM Latrunculin B by one-way ANOVA followed by Dunnett’s test. e Concentration-dependent insulin-stimulated GLUT4 translocation in L6-GLUT4myc myotubes with or without 30 μM DS20060511 (n = 3). f Concentration-dependent DS20060511-stimulated 2-DG uptake with 100 nM insulin in isolated muscles from C57BL/6 mice (n = 3). Values shown are means ± SEM. ***P < 0.001 by one-way ANOVA followed by Tukey’s test. g Blood glucose levels during ITT in STZ-treated C57BL/6 mice (n = 6–7). Vehicle or indicated dose of DS20060511 was given orally at the same time as 0.1 U kg^−1 insulin injection intraperitoneally. Values shown are means ± SEM. *P < 0.05 vs. vehicle by one-way ANOVA followed by Dunnett’s test. c Scale bar in all panels, 5 μm. Uncropped blots for a and b can be found in Supplementary Fig. 6.
C57BL/6 mice deprived of access to food overnight received an intraperitoneal injection of STZ (125 mg kg^−1) and a repeat injection a week later. Thereafter, their blood glucose levels were monitored and insufficient mice (blood glucose levels of under 400 mg dL^−1 or blood glucose levels after overnight food deprivation of under 200 mg dL^−1) were excluded from the experiment. Blood glucose levels were measured using Glutest Every (Sanwa Kagaku Kenkyusho, Nagoya, Japan) in blood samples collected from the tail vein.
Mice received the indicated oral dose of DS20060511 or vehicle at the same time as the intraperitoneal injection of insulin (Humulin) at the indicated dose. Blood glucose levels were measured using Glutest Every in blood samples collected from the tail vein at the indicated timepoints.

HFD-fed mice = assay: Oral GTT in normal-chow and high-fat diet (HFD)-fed mice; type: in vivo, mouse; details: for Blood glucose / Plasma insulin: Glucose tolerance test, HFD, 30 mg/kg, individual animals
Procedure: Fig. 8 Acute and chronic DS20060511 treatment improves glucose intolerance in HFD-fed and db/db mice. a Blood glucose and plasma insulin levels during an oral GTT in normal-chow (NC)- and high-fat diet (HFD)-fed mice (n = 5). Vehicle or DS20060511 (30 mg kg^−1) was given orally 15 min before the oral glucose administration (1.5 g kg^−1). Values shown are means ± SEM. *P < 0.05, **P < 0.01, ***P < 0.001 vs. the HFD vehicle by the t-test. b Effects of 10 μM DS20060511 and 100 nM insulin on 2-DG uptake in muscles isolated from NC-fed (n = 6) and HFD-fed (n = 5) mice. Values shown are means ± SEM. **P < 0.01 by one-way ANOVA followed by Tukey’s test. c, d Changes in the blood glucose levels and AUC on day 1 and day 28 during refeeding (n = 6) in db/db mice treated chronically with DS20060511 (10 mg kg^−1 day^−1). Values shown are means ± SEM. *P < 0.05, **P < 0.01, ***P < 0.001 vs. vehicle by the t-test. e Change of the HbA1c levels in the db/db (n = 6) mice at 4 weeks. Values shown are means ± SEM. *P < 0.05 vs. vehicle by the t-test.
C57BL/6 and db/db mice were purchased from CLEA Japan, Tokyo, Japan. GLUT4- knockout mice were generated at RIKEN BioResource Center, Tsukuba, Japan, according to a previously described method. eNOS-knockout mice were kindly provided by Dr. Masato Tsutsui[41],[42]. The mice were group-housed under controlled illumination (12:12 h light-dark cycle) and temperature (23 ± 2 °C) conditions and given free access to normal chow and water, unless otherwise specified. The HFD-fed obese mice were prepared by feeding C57BL/6 mice a HFD for at least 8 weeks from 6 weeks of age. […] Male mice were used for all the experiments in this study. The animal care and experimental procedures used in the study were approved by The University of Tokyo Animal Care Committee (Approval number: 27-3), and the study was carried out in accordance with the Animal Experimentation Guidelines of Daiichi Sankyo Co., Ltd (Approved number: 20000411).
Mice that had been denied access to food overnight received the indicated oral dose of DS20060511 or vehicle 15 min prior to the glucose load (1.5 g kg^−1, except for eNOS-knockout mice, which received 3.0 g kg^−1). Then, after the oral glucose load, the blood glucose levels were measured using Glutest Every in samples obtained from the tail vein at the indicated timepoints. Plasma insulin concentrations were also measured with an ELISA kit (Morinaga Institute of Biological Science, Yokohama, Japan) in blood samples collected from the tail vein at the indicated timepoints.

Question: Which Blood glucose (STZ-treated C57BL/6 mice; 10 mg/kg po with 0.1 U kg−1 insulin ip, 0 min, 10 mg/kg) does the source give for `COc1ccc2c(C)c(C(=O)O)ccc2c1C1C2=C(CC(C)(C)CC2=O)OC2=C1C(=O)CC(C)(C)C2` [DS20060511] here?
Answer: The Blood glucose was 516 mg/dL and 430 mg/dL and 520 mg/dL and 493 mg/dL and 480 mg/dL and 526 mg/dL.

Question: What about the Blood glucose (STZ-treated C57BL/6 mice; 10 mg/kg with insulin, 20 min, 10 mg/kg) of the same compound?
Answer: Its Blood glucose is 427 mg/dL and 401 mg/dL and 313 mg/dL and 397 mg/dL and 311 mg/dL and 432 mg/dL.

Question: And the Blood glucose (STZ-treated C57BL/6 mice; 30 mg/kg po with 0.1 U kg−1 insulin ip, 0 min, 30 mg/kg)?
Answer: The Blood glucose was 433 mg/dL and 472 mg/dL and 458 mg/dL and 427 mg/dL and 461 mg/dL and 483 mg/dL and 532 mg/dL.

Question: And the “blood glucose levels, combined with insulin vs insulin alone (in words)” value (STZ-treated C57BL/6 mice; STZ-treated mice, Fig. 4g)?
Answer: The value was “reduced to a greater degree”.

Question: And the Blood glucose (HFD-fed mice; 0 min)?
Answer: The Blood glucose was 194 mg/dL and 178 mg/dL and 193 mg/dL and 108 mg/dL and 185 mg/dL.

Question: And the Plasma insulin (HFD-fed mice; 0 min)?
Answer: The Plasma insulin was 0.79 ng/mL and 1.09 ng/mL and 0.57 ng/mL and 0.32 ng/mL and 0.69 ng/mL.

Question: What about the Blood glucose (HFD-fed mice; 15 min) of the same compound?
Answer: The Blood glucose was 331 mg/dL and 278 mg/dL and 279 mg/dL and 180 mg/dL and 270 mg/dL.

Question: And the Plasma insulin (HFD-fed mice; 15 min)?
Answer: Its Plasma insulin is 3.22 ng/mL and 2.72 ng/mL and 2.47 ng/mL and 1.43 ng/mL and 1.91 ng/mL.

Question: What about the Blood glucose (HFD-fed mice; 30 min) of the same compound?
Answer: The Blood glucose was 200 mg/dL and 213 mg/dL and 232 mg/dL and 161 mg/dL.

Question: And the Plasma insulin (HFD-fed mice; 30 min)?
Answer: Its Plasma insulin is 1.03 ng/mL and 1.28 ng/mL and 0.97 ng/mL and 0.53 ng/mL and 0.78 ng/mL.

Question: What about the Blood glucose (HFD-fed mice; 60 min) of the same compound?
Answer: Its Blood glucose is 209 mg/dL and 214 mg/dL and 235 mg/dL and 141 mg/dL and 229 mg/dL.

Question: And the Blood glucose (HFD-fed mice; 90 min)?
Answer: The Blood glucose was 199 mg/dL and 201 mg/dL and 204 mg/dL and 164 mg/dL and 209 mg/dL.

Question: What about the Blood glucose (HFD-fed mice; 120 min) of the same compound?
Answer: The Blood glucose was 188 mg/dL and 154 mg/dL and 227 mg/dL and 155 mg/dL and 189 mg/dL.

Question: And the Blood glucose (HFD-fed mice; -15 min)?
Answer: Its Blood glucose is 212 mg/dL and 167 mg/dL and 176 mg/dL and 120 mg/dL and 197 mg/dL.

Question: What about the Plasma insulin (HFD-fed mice; -15 min) of the same compound?
Answer: The Plasma insulin was 1.31 ng/mL and 2.09 ng/mL and 1.16 ng/mL and 0.67 ng/mL.

Question: What about the “blood glucose levels during oral GTT (in words)” value (HFD-fed mice; HFD-fed mice, 30 mg kg−1 po) of the same compound?
Answer: The value was “significantly decreased the blood glucose levels”.

Question: What about the “plasma insulin levels during oral GTT (in words)” value (HFD-fed mice; HFD-fed mice, 30 mg kg−1 po) of the same compound?
Answer: The value was “rather decreased”.
